Here are results for 18 compounds from article PMC12494543, “Identification of ALKBH6 as a nucleotide demethylase with a distinct substrate preference” (The Journal of Biological Chemistry, 2025).

One may read the Km as the substrate concentration at which the rate is half of its maximum. In general, kcat refers to the number of substrate molecules converted per active site and unit of time at saturation.

In data set [1] the target is T1, ALKBH6 (Homo sapiens, UniProt Q3KRA9).
T1 construct: His-tag; made in house
T1 sequence (Q3KRA9 whole entry): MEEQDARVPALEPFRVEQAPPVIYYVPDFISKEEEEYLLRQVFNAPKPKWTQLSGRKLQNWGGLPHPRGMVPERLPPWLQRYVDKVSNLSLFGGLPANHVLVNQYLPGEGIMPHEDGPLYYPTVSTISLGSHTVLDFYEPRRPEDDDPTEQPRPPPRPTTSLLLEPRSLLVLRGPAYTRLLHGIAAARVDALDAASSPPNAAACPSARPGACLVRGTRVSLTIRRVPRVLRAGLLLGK
The data set can be described thus: FDH-coupled formaldehyde release demethylation assay. It counts as biochemical. Conditions: for formaldehyde release / demethylation by ALKBH6: FDH-coupled assay, tested as substrate; for inhibition of ALKBH6-mediated demethylation: me-dNMPs as substrate. As for the experimental part:
(§1) NMPs including 1meAMP (Jena Bioscience, NU-1029-1,) 7meGMP (Jena Bioscience, NU-1135S), 6me-AMP (Sigma, M2780) were purchased. N-methylated deoxy-NMPs were prepared by methylating chemically synthesized 30-mer oligonucleotide containing either dA, dG, dC, or dT by MMS (5%, v/v) (0.59 M) MMS (Sigma, 129925) and purified as described before ([17]). The oligonucleotides were digested with nuclease P1 (NEB) at 37 °C for 4 h to produce deoxy-NMPs. After heat inactivating the nuclease, dNMPs were purified by HPLC and used for the demethylation reaction. N-methylated NMPs were purified similarly, using RNA as the starting material. For the demethylation reaction, ALKBH6 (1 μM) and me-dNMPs (1 mM) were mixed in the dioxygenase reaction buffer and incubated at 37 °C for 30 min. Formaldehyde release was detected by FDH-coupled DNA repair assay as described before ([32], [33]). Briefly, 1 mM NAD+ and 0.01 U FDH were added to the dioxygenase reaction buffer containing methylated nucleotide and ALKBH6. NADH generated was detected by the characteristic absorption peak (340 nm) using a 96-well multimode reader (Synergy, Biotek Instrument). Formaldehyde production was quantified from the standard curve and the initial velocities were determined using various substrate concentrations. The results were plotted and analyzed using GraphPad Prism.

The target of data set [2] is T1, ALKBH6. The data set can be described thus: Intrinsic tryptophan fluorescence quenching (Stern-Volmer). The settings on record: WT ALKBH6, 2OG omitted. It counts as binding. As for the experimental part:
(§2) All tryptophan fluorescence spectroscopy experiments were performed using a multimode plate reader (PerkinElmer). The excitation and emission wavelengths were fixed at 280 nm and 356 nm, respectively. To measure ALKBH6–ligand interactions, recombinant ALKBH6 (500 nM), and increasing concentrations of ligand (0–80 μM) were equilibrated in binding buffer (50 mM Hepes, pH 7.6, 300 mM KCl) for 1 h. For Stern–Volmer quenching analysis, the F0/F = 1 + KSV(L) formula was used, where, KSV is the Stern–Volmer constant, L is the concentration of the quencher, F0 and F represent the steady-state fluorescence intensities in the absence and presence of quencher, respectively. All the data were calculated with best-fit parameter values and 95% confidence intervals in GraphPad Prism software.

A further data set relates to AlkB. The settings on record: AlkB substrate; cited from earlier work.
Data set [3] addresses T1, ALKBH6. The data set can be described thus: Demethylation assay by HPLC analysis. It counts as biochemical. The settings on record: substrate 250 and 500 μM, 30 min. As for the experimental part:
(§3) Following ALKBH6-mediated demethylation, NMPs and dNMPs were analyzed in an HPLC system (Shimadzu) equipped with a reversed-phase Shim-pack GIST C18 5 μm separation column (250 × 4.6 mm). For majority of the nucleotides including 1me-AMP, 1me-dAMP, 7me-dGMP, 6me-AMP, 7me-GMP, 3me-dCMP, dAMP, dCMP AMP, GMP, the column was equilibrated with mobile phase A (50 mM ammonium acetate) and mobile phase B (50 mM ammonium acetate, 50% of acetonitrile and 0.1% trifluoroacetic acid. For dGMP, different mobile phase A (50 mM ammonium acetate, 3% methanol, pH-5.0) and mobile phase B (methanol) were used. The peaks were identified based on the elution time of the standards (Fig. S9) purchased from Sigma and further analyzed using LabSolutions software (www.shimadzu.com) and analyzed by mass spectrometry.

Data set [4] has as its system ALKBH6. The data set can be described thus: ALKBH6 knockdown by shRNA, qPCR. The settings on record: MCF7 cells, 48 h after transfection, vs Sh-control. It counts as cell-based, human. The text has this: The GFP-tagged ALKBH6 expression plasmids were constructed by cutting the PCR-amplified WT ALKBH6 with XhoI and EcoRI, and then cloned in-frame and upstream of the sequence encoding the GFP pEGFP-N1 (Clontech). ALKBH6 shRNA constructs were generated using reported sequences (shALKBH6#1 5′ AGGAGTATTTGCTTCGACA 3′, shALKBH6#2 5′ […] 3′) and cloned into the pSilencer 2.1-U6 puro shRNA vector. All the shRNA constructs were confirmed by sequencing (Fig. S6). For negative control, pSilencer 2.1-U6 puro vector was used.
MCF7 cells were maintained in Dulbecco's modified Eagle's medium (DMEM) with 10% fetal bovine serum at 37 °C in a humidified air containing 5% CO2. Stable ALKBH6 knockdown cell line was generated by inserting the target sequence for ALKBH6 or the scramble control into the pSilencer2.puro (pSil) vector (Ambion) to form short hairpin RNAs for RNAi. For plasmid transfection in MCF7 cells, cells were suspended in DMEM without fetal bovine serum or antibiotics at a concentration of 1 × 10^7 cells/ml. A volume of 0.1 ml was transferred to a sterile electroporation cuvette (Bio-Rad Gene Pulser cuvette) and kept at room temperature for 5 min in the presence of 15 μg plasmid. Electroporation was performed using the Gene Pulser Xcell System (Bio-Rad) with 220 V/cm, 950 μF capacitance, and infinite resistance. […]

For the next data set, the system named is MTH1. Further details: method as in PMID 30304478. Conditions: MTH1 substrate; cited from earlier work.
For another data set, the system named is ALKBH3. Further details: method as in PMID 28269980. The settings on record: cited from earlier work.
The target of another data set is T2, ALKBH6 E115 mutant (Homo sapiens, UniProt Q3KRA9, E115A).
T2 construct: His-tag; made in house
T2 sequence (Q3KRA9 whole entry E115A): as the sequence (Q3KRA9 whole entry) above, with E115A counted along it
The data set can be described thus: FDH-coupled formaldehyde release demethylation assay. It counts as biochemical. The settings on record: substrate 500 μM. As for the experimental part:
as §1

Data set [5] deals with T3, ALKBH6 Y120A (Homo sapiens, UniProt Q3KRA9, Y120A).
T3 construct: His-tag; made in house
T3 sequence (Q3KRA9 whole entry Y120A): as the sequence (Q3KRA9 whole entry) above, with Y120A counted along it
The data set can be described thus: Intrinsic tryptophan fluorescence quenching (Stern-Volmer). It counts as binding. As for the experimental part: as §2

The target in another data set is T4, ALKBH6 E115A (Homo sapiens, UniProt Q3KRA9, E115A).
T4 construct: His-tag; made in house
T4 sequence (Q3KRA9 whole entry E115A): as the sequence (Q3KRA9 whole entry) above, with E115A counted along it
The data set is described as above. It counts as binding. As for the experimental part: as §2

The target of data set [6] is T3, ALKBH6 Y120A. The data set can be described thus: Thermal shift analysis (DSF, SYPRO Orange). It counts as binding. As for the experimental part: (§4) All the experiments were performed in Eco Real-Time PCR system as described before ([55]). Purified recombinant His-tag ALKBH6 or ALKBH6-Y120A (5 μM) was incubated with varying concentrations (0–50 μM) of 7methyl-GMP in binding buffer (50 mM Hepes pH7.6, and 75 mM KCl). SYPRO Orange was added to the reaction (20 μl) and melting derivatives (-dRFU/dT) of fluorescence emission were determined by measuring the fluorescence with temperature increment of 0.1 °C from 40 °C to 100 °C. The ΔTm was calculated by subtracting Tm of ALKBH6 from Tm of ALKBH6 with 7methyl-GMP. The changes of Tm (ΔTm) were plotted against increasing concentrations of 7methyl-GMP and dissociation constant was determined by using one site specific binding formula of GraphPad Prism software.

Data set [7] concerns the target T1, ALKBH6. The data set can be described thus: Thermal shift analysis (DSF, SYPRO Orange). It counts as binding. Conditions: from ΔTm vs ligand concentration; read-out: apparent dissociation constant. As for the experimental part: as §4
Data set [8] addresses T3, ALKBH6 Y120A. The data set can be described thus: Demethylation assay by HPLC analysis. It counts as biochemical. Conditions: substrate 500 μM. As for the experimental part:
as §3

[9] abbreviates: substrate of ALKBH6, Michaelis-Menten.

With `Cn1c[n+]([C@@H]2O[C@H](COP(=O)([O-])OP(=O)(O)OP(=O)(O)O)[C@@H](O)[C@H]2O)c2nc(N)[nH]c(=O)c21` [7me-GTP], the “formaldehyde release / demethylation by ALKBH6” value on ALKBH6 [1] was “comparatively less”. For the same compound, on ALKBH6 [2], the “Stern-Volmer constant (Ksv)” value came to 0.007 µM⁻¹.

Turning to `Cn1cnc2c(ncn2[C@H]2C[C@H](O)[C@@H](COP(=O)(O)O)O2)c1=N` [1me-dAMP], the “formaldehyde release / demethylation by ALKBH6” value at ALKBH6 [1] was “Formaldehyde release was observed”. Further, in the data set with AlkB, the Km is 2000 nM and the kcat is 4.2 min⁻¹. On ALKBH6 [3], the “demethylation by ALKBH6 (HPLC)” value is given as “efficiently demethylate”.

As to “Sh #2: shRNA to ALKBH6, 5′ GCACCACCTGTAATCTACTAT 3′ in pSilencer 2.1-U6 puro vector (shRNA in pSilencer vector; only target-sense given)”, in the data set with ALKBH6 [4], the “reduction of ALKBH6 expression (knockdown)” value is “more than 90%”.

With `CNc1ncnc2c1ncn2[C@@H]1O[C@H](COP(=O)(O)O)[C@@H](O)[C@H]1O` [6me-AMP], on ALKBH6 [1], the “formaldehyde release / demethylation by ALKBH6” value is recorded as “did not observe any demethylation”. The “demethylation by ALKBH6 (HPLC)” value at ALKBH6 [3] is “did not observe any demethylation”.

For the compound `C[n+]1cnc2c(ncn2[C@@H]2O[C@H](COP(=O)(O)O)[C@@H](O)[C@H]2O)c1N` [1me-AMP, N-1-methyl-adenosine monophosphate], the “Stern-Volmer constant (Ksv)” value on ALKBH6 [2] worked out at 0.011 ± 0.002 µM⁻¹. For the same compound, the “demethylation by ALKBH6 (HPLC)” value at ALKBH6 [3] is listed as “converted to AMP”.

In the case of `C[n+]1cn([C@H]2C[C@H](O)[C@@H](COP(=O)(O)O)O2)c2nc(N)[nH]c(=O)c21` [7me-dGMP], on ALKBH6 [1], the “formaldehyde release / demethylation by ALKBH6” value is recorded as “Formaldehyde release was observed”. On ALKBH6 [1] (setting [9]), the Km was determined as 1030 nM and the catalytic constant (kcat) amounted to 10.8 min⁻¹. In addition, at ALKBH6 [3], the “demethylation by ALKBH6 (HPLC)” value is listed as “efficiently demethylate”.

`COc1nc(N)nc2c1ncn2[C@H]1C[C@H](O)[C@@H](COP(=O)(O)OP(=O)(O)OP(=O)(O)O)O1` [O6-methyl-dGTP]: in the data set on MTH1, the Km is 13.2 µM and the turnover number (kcat) was 8.3 s⁻¹.

In the case of `O=C(O)CCC(=O)O` [succinate, reference compound], the “inhibition of ALKBH6-mediated demethylation” value at ALKBH6 [1] is given as “inhibited”.

Regarding `Cn1cnc2c(ncn2[C@@H]2O[C@H](CO)[C@@H](O)[C@H]2O)c1=N` [1me-adenosine, reference compound], on ALKBH6 [1], the “formaldehyde release / demethylation by ALKBH6” value is listed as “could not demethylate”.

`Cn1c(N)nc2c(ncn2[C@@H]2O[C@H](COP(=O)(O)OP(=O)(O)OP(=O)(O)O)[C@@H](O)[C@H]2O)c1=O` [1me-GTP]: on ALKBH6 [2], the “Stern-Volmer constant (Ksv)” value was determined as 0.004 µM⁻¹.

Take `Cn1c(=N)ccn([C@H]2C[C@H](O)[C@@H](COP(=O)(O)O)O2)c1=O` [3me-dCMP]: on ALKBH6 [1], the “formaldehyde release / demethylation by ALKBH6” value was “Formaldehyde release was observed”. For the same compound, the “demethylation by ALKBH6 (HPLC)” value on ALKBH6 [3] was “efficiently demethylate”.

Take “Sh #1: shRNA to ALKBH6, 5′ AGGAGTATTTGCTTCGACA 3′ in pSilencer 2.1-U6 puro vector (shRNA in pSilencer vector; only target-sense given)”: the “reduction of ALKBH6 expression (knockdown)” value with ALKBH6 [4] came out at 75%.

On to `COc1nc(N)nc2c1ncn2[C@@H]1O[C@H](COP(=O)(O)OP(=O)(O)OP(=O)(O)O)[C@@H](O)[C@H]1O` [O^6-methyl-GTP], for which the kcat in the data set with MTH1 is 0.3 s⁻¹.

As to `Cn1c(=N)cc[nH]c1=O` [3meC, N-3-methylcytosine], the kcat entry with ALKBH3 is listed as “approximately 1.7 min^−1”.

As to `Cn1c[n+]([C@@H]2O[C@H](CO)[C@@H](O)[C@H]2O)c2nc(N)[nH]c(=O)c21` [7me-guanosine, reference compound], on ALKBH6 [1], the “formaldehyde release / demethylation by ALKBH6” value is given as “could not demethylate”.

With `O=C(O)CCC(O)C(=O)O` (stereo not shown) [2HG, 2-hydroxyglutarate, reference compound], at ALKBH6 [1], the “inhibition of ALKBH6-mediated demethylation” value is on record as “inhibited”.

In the case of `Cn1cnc2c(ncn2[C@@H]2O[C@H](COP(=O)(O)OP(=O)(O)OP(=O)(O)O)[C@@H](O)[C@H]2O)c1=N` [1me-ATP], the “formaldehyde release / demethylation by ALKBH6” value on ALKBH6 [1] is on record as “comparatively less”.

For the compound `C[n+]1cn([C@@H]2O[C@H](COP(=O)(O)O)[C@@H](O)[C@H]2O)c2nc(N)[nH]c(=O)c21` [7me-GMP, N-7-methyl-GMP], at ALKBH6 E115 mutant, the “demethylation activity over time” value is “comparable to WT ALKBH6”. At ALKBH6 [1], the “formaldehyde release / demethylation by ALKBH6” value was “Formaldehyde release was observed”. For the same compound, the “Stern-Volmer constant (Ksv)” value was “negative” at ALKBH6 Y120A [5], 0.036 ± 0.009 µM⁻¹ at ALKBH6 [2] and 0.035 ± 0.008 µM⁻¹ at ALKBH6 E115A. Also, the ΔTm shift result on ALKBH6 Y120A [6] is recorded as “no significant ΔTm shift”. In addition, at ALKBH6 [7], the Kd worked out at 620 nM. On ALKBH6 Y120A [8], the “demethylation (HPLC end product)” value is “little demethylation”. Further, the “demethylation by ALKBH6 (HPLC)” value at ALKBH6 [3] is on record as “converted”.
